Here are results for one compound from article PMC8976378, “NADH oxidase of Mycoplasma hyopneumoniae functions as a potential mediator of virulence” (BMC Veterinary Research, 2022).

This assay deals with rNOX (NADH oxidase, NOX) (Mesomycoplasma hyopneumoniae, UniProt E4QS87). As to the kind of experiment: NADH oxidation, absorbance at […] nm. The assay is classed as biochemical. To be noted: 0.5 mM NADH; 10 uM FAD added; 0.1 M potassium phosphate pH 7.5, 1 mM dithiothreitol; 25 °C; 5 ug/mL enzyme.
Chain of rNOX (NADH oxidase, NOX) (E4QS87 entry or part of it): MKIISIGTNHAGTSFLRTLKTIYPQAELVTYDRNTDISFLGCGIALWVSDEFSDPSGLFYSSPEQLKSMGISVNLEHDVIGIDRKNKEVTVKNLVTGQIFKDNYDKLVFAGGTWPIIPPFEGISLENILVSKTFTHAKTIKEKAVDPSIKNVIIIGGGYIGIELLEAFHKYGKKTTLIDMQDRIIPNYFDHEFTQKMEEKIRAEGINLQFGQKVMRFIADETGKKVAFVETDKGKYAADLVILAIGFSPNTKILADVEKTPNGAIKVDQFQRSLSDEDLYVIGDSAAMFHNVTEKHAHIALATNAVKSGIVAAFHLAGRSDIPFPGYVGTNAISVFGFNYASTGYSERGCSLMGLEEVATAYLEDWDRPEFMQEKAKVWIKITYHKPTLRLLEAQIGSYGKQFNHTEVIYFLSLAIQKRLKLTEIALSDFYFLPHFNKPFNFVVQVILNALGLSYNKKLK

On to `NC(=O)C1=CN([C@@H]2O[C@H](COP(=O)(O)OP(=O)(O)OC[C@H]3O[C@@H](n4cnc5c(N)ncnc54)[C@H](O)[C@@H]3O)[C@@H](O)[C@H]2O)C=CC1` [NADH], for which the “NADH oxidation, absorbance at 340 nm” value is listed as “enzymatic activity of purified rNOX was determined by measuring the oxidation of NADH to NAD^+”.
